Reference: the supplement of paper PMC10307832

How the values were obtained:
Experiment in all cases: relative viability (nuclei count vs DMSO), 5 days (fraction); higher = more cells survive
ABC-1 = test system: ABC-1
How it was run: (§1)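 The day after seeding in 1536-well plates, lung cancer cell lines were treated by pin tool with a single drug, or with a fixed anchor-drug dose together with five library-drug doses (not always all listed) in √10 steps. After 5 days, a combined fix-and-stain solution (final 0.05% Triton X-100, 1% formaldehyde, 1 ug/ml Hoechst) was added. Nuclei counted on 4× images gave relative viability as treated counts over vehicle counts, reported as the median of duplicate plates.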

CAL-12T = test system: CAL-12T
How it was run: as §1

ChaGo-K-1 = test system: ChaGo-K-1
How it was run: as §1

EPLC-272H = test system: EPLC-272H
How it was run: as §1

HCC-366 = test system: HCC-366
How it was run: as §1

HCC-78 = test system: HCC-78
How it was run: as §1

LC-2-ad = test system: LC-2-ad
How it was run: as §1

LOU-NH91 = test system: LOU-NH91
How it was run: as §1

LU99A = test system: LU99A
How it was run: as §1

NCI-H1651 = test system: NCI-H1651
How it was run: as §1

NCI-H1734 = test system: NCI-H1734
How it was run: as §1

NCI-H1755 = test system: NCI-H1755
How it was run: as §1

NCI-H1944 = test system: NCI-H1944
How it was run: as §1

NCI-H2087 = test system: NCI-H2087
How it was run: as §1

NCI-H2170 = test system: NCI-H2170
How it was run: as §1

NCI-H2228 = test system: NCI-H2228
How it was run: as §1

NCI-H2405 = test system: NCI-H2405
How it was run: as §1

NCI-H3122 = test system: NCI-H3122
How it was run: as §1

NCI-H460 = test system: NCI-H460
How it was run: as §1

PC-3 [JPC-3] = test system: PC-3 [JPC-3]
How it was run: as §1

RERF-LC-KJ = test system: RERF-LC-KJ
How it was run: as §1

UMC-11 = test system: UMC-11
How it was run: as §1

For `COc1cc(N2CCC(C(N)=O)CC2)ccc1Nc1nc(N)c(Cl)c(Nc2ccccc2S(=O)(=O)C(C)C)n1` [HG-5-88-01] + C[C@@H](Oc1cc(-c2cnn(C3CCNCC3)c2)cnc1N)c1c(Cl)ccc(F)c1Cl [Crizotinib] (partner 1 µM), the relative viability (ABC-1; first compound 0.04 µM) was 1.15, the relative viability (ABC-1; first compound 0.1265 µM) was 0.939 and the relative viability (ABC-1; first compound 0.4 µM) was 0.813. For the same molecule, the relative viability (ABC-1; first compound 1.265 µM) was 0.606, the relative viability (ABC-1; first compound 4 µM) was 0.43 and the relative viability (CAL-12T; first compound 0.04 µM) was 0.589. For the same molecule, the relative viability (CAL-12T; first compound 0.1265 µM) was 0.671, the relative viability (CAL-12T; first compound 0.4 µM) was 0.421 and the relative viability (CAL-12T; first compound 1.265 µM) was 0.432. The relative viability (CAL-12T; first compound 4 µM) was 0.183, the relative viability (ChaGo-K-1; first compound 0.04 µM) was 1.12 and the relative viability (ChaGo-K-1; first compound 0.1265 µM) was 1.14. For the same molecule, the relative viability (ChaGo-K-1; first compound 0.4 µM) was 1.03, the relative viability (ChaGo-K-1; first compound 1.265 µM) was 0.888 and the relative viability (ChaGo-K-1; first compound 4 µM) was 0.787. The relative viability (EPLC-272H; first compound 0.04 µM) was 0.972, the relative viability (EPLC-272H; first compound 0.1265 µM) was 0.909 and the relative viability (EPLC-272H; first compound 0.4 µM) was 0.964. For the same molecule, the relative viability (EPLC-272H; first compound 1.265 µM) was 0.704, the relative viability (EPLC-272H; first compound 4 µM) was 0.0745 and the relative viability (HCC-366; first compound 0.04 µM) was 0.642. The relative viability (HCC-366; first compound 0.1265 µM) was 0.487, the relative viability (HCC-366; first compound 0.4 µM) was 0.468 and the relative viability (HCC-366; first compound 1.265 µM) was 0.441. For the same molecule, the relative viability (HCC-366; first compound 4 µM) was 0.198, the relative viability (HCC-78; first compound 0.04 µM) was 0.37 and the relative viability (HCC-78; first compound 0.1265 µM) was 0.319. For the same molecule, the relative viability (HCC-78; first compound 0.4 µM) was 0.31, the relative viability (HCC-78; first compound 1.265 µM) was 0.185 and the relative viability (HCC-78; first compound 4 µM) was 0.275. It also gave a relative viability (LC-2-ad; first compound 0.04 µM) of 0.436, a relative viability (LC-2-ad; first compound 0.1265 µM) of 0.496 and a relative viability (LC-2-ad; first compound 0.4 µM) of 0.5. For the same molecule, the relative viability (LC-2-ad; first compound 1.265 µM) was 0.4, the relative viability (LC-2-ad; first compound 4 µM) was 0.368 and the relative viability (LOU-NH91; first compound 0.04 µM) was 0.745. It also gave a relative viability (LOU-NH91; first compound 0.1265 µM) of 0.737, a relative viability (LOU-NH91; first compound 0.4 µM) of 0.671 and a relative viability (LOU-NH91; first compound 1.265 µM) of 0.494. For the same molecule, the relative viability (LOU-NH91; first compound 4 µM) was 0.566, the relative viability (LU99A; first compound 0.04 µM) was 0.554 and the relative viability (LU99A; first compound 0.1265 µM) was 0.615. It also gave a relative viability (LU99A; first compound 0.4 µM) of 0.511, a relative viability (LU99A; first compound 1.265 µM) of 0.491 and a relative viability (LU99A; first compound 4 µM) of 0.423. For the same molecule, the relative viability (NCI-H1651; first compound 0.04 µM) was 0.866, the relative viability (NCI-H1651; first compound 0.1265 µM) was 0.828 and the relative viability (NCI-H1651; first compound 0.4 µM) was 0.808. For the same molecule, the relative viability (NCI-H1651; first compound 1.265 µM) was 0.713, the relative viability (NCI-H1651; first compound 4 µM) was 0.942 and the relative viability (NCI-H1734; first compound 0.04 µM) was 0.71. It also gave a relative viability (NCI-H1734; first compound 0.1265 µM) of 0.709, a relative viability (NCI-H1734; first compound 0.4 µM) of 0.681 and a relative viability (NCI-H1734; first compound 1.265 µM) of 0.497. It also gave a relative viability (NCI-H1734; first compound 4 µM) of 0.64, a relative viability (NCI-H1755; first compound 0.1265 µM) of 0.86 and a relative viability (NCI-H1755; first compound 0.4 µM) of 0.854. The relative viability (NCI-H1755; first compound 1.265 µM) was 0.768, the relative viability (NCI-H1755; first compound 4 µM) was 0.933 and the relative viability (NCI-H1944; first compound 0.04 µM) was 1.09. It also gave a relative viability (NCI-H1944; first compound 0.1265 µM) of 1.13, a relative viability (NCI-H1944; first compound 0.4 µM) of 1.09 and a relative viability (NCI-H1944; first compound 1.265 µM) of 0.82. It also gave a relative viability (NCI-H1944; first compound 4 µM) of 1.06, a relative viability (NCI-H2087; first compound 0.04 µM) of 0.758 and a relative viability (NCI-H2087; first compound 0.1265 µM) of 0.868. The relative viability (NCI-H2087; first compound 0.4 µM) was 0.839, the relative viability (NCI-H2087; first compound 1.265 µM) was 0.825 and the relative viability (NCI-H2087; first compound 4 µM) was 0.527. For the same molecule, the relative viability (NCI-H2170; first compound 0.04 µM) was 1.23, the relative viability (NCI-H2170; first compound 0.1265 µM) was 1.24 and the relative viability (NCI-H2170; first compound 0.4 µM) was 1.18. The relative viability (NCI-H2170; first compound 1.265 µM) was 0.977, the relative viability (NCI-H2170; first compound 4 µM) was 1.28 and the relative viability (NCI-H2228; first compound 0.04 µM) was 0.677. It also gave a relative viability (NCI-H2228; first compound 0.1265 µM) of 0.464, a relative viability (NCI-H2228; first compound 0.4 µM) of 0.454 and a relative viability (NCI-H2228; first compound 1.265 µM) of 0.427. For the same molecule, the relative viability (NCI-H2228; first compound 4 µM) was 0.307, the relative viability (NCI-H2405; first compound 0.04 µM) was 0.841 and the relative viability (NCI-H2405; first compound 0.1265 µM) was 0.821. The relative viability (NCI-H2405; first compound 0.4 µM) was 0.796, the relative viability (NCI-H2405; first compound 1.265 µM) was 0.599 and the relative viability (NCI-H2405; first compound 4 µM) was 0.901. The relative viability (NCI-H3122; first compound 0.04 µM) was 0.271, the relative viability (NCI-H3122; first compound 0.1265 µM) was 0.264 and the relative viability (NCI-H3122; first compound 0.4 µM) was 0.292. The relative viability (NCI-H3122; first compound 1.265 µM) was 0.233, the relative viability (NCI-H3122; first compound 4 µM) was 0.173 and the relative viability (NCI-H460; first compound 0.04 µM) was 0.83. The relative viability (NCI-H460; first compound 0.1265 µM) was 1.06, the relative viability (NCI-H460; first compound 0.4 µM) was 0.851 and the relative viability (NCI-H460; first compound 1.265 µM) was 0.843. The relative viability (NCI-H460; first compound 4 µM) was 0.0524, the relative viability (PC-3 [JPC-3]; first compound 0.04 µM) was 0.983 and the relative viability (PC-3 [JPC-3]; first compound 0.1265 µM) was 1.03. It also gave a relative viability (PC-3 [JPC-3]; first compound 0.4 µM) of 1.07, a relative viability (PC-3 [JPC-3]; first compound 1.265 µM) of 0.937 and a relative viability (PC-3 [JPC-3]; first compound 4 µM) of 0.64. It also gave a relative viability (RERF-LC-KJ; first compound 0.04 µM) of 0.816, a relative viability (RERF-LC-KJ; first compound 0.1265 µM) of 0.816 and a relative viability (RERF-LC-KJ; first compound 0.4 µM) of 0.81. For the same molecule, the relative viability (RERF-LC-KJ; first compound 1.265 µM) was 0.782, the relative viability (RERF-LC-KJ; first compound 4 µM) was 0.535 and the relative viability (UMC-11; first compound 0.04 µM) was 0.652. It also gave a relative viability (UMC-11; first compound 0.1265 µM) of 0.581, a relative viability (UMC-11; first compound 0.4 µM) of 0.621 and a relative viability (UMC-11; first compound 1.265 µM) of 0.445. It also gave a relative viability (UMC-11; first compound 4 µM) of 0.171.
